Source: patent publication US8647824B2, “Microbial reductive dehalogenation of vinyl chloride” (The Board of Trustees of the Leland Stanford Junior …, priority 2004, dated 2014)
Several values for one entry are separate records, joined by “and”; a condition that tells them apart may be missing. Identical values can stand only once. Marks after values point to notes of the source that are not given here.

What was measured:
[1] = system: Victoria mixed culture, containing strain VS; assay: Batch dechlorination and growth kinetics, Victoria mixed culture; assay type: cell-based, Dehalococcoides species strain VS; conditions: for Maximum Growth Rate: VS Mixed (Victoria) culture, 95% confidence interval, least-squares model fit
From the text: (§1) Stock cultures. The Victoria mixed culture, containing strain VS, was maintained in a closed continuously stirred tank reactor (CSTR) as previously described. A VC enrichment of this culture, maintained over 5 years, was also used in these investigations. Liquid cultures of the three other cultures evaluated (Pinellas, KB-1/VC, and Dehalococcoides ethenogenes strain 195) were kept in anaerobic bottles, stored in an anaerobic chamber (10% H2, 10% CO2, 80% N2). The bottles were amended with TCE (1-3 μL neat liquid), VC (250 μL gas), and PCE (1-3 μL neat liquid) being added to each, respectively, approximately every two weeks.
(§2) Batch studies. For the experimental portion of this research, two studies were undertaken, one a comparative VC growth study, and the other a comparative growth and substrate utilization study with different chlorinated ethenes. These studies compared the dechlorination abilities of Dehalococcoides ethenogenes strain 195 and the Dehalococcoides-like microorganisms in the three mixed cultures (Victoria, KB-1/VC, and Pinellas).
(§3) For the first study, a VC enriched inoculum was first developed for each of the three mixed cultures. Here, bottles (120 mL) were filled with 60 mL of anaerobic media in an anaerobic chamber as previously described, and inoculated with 200 μL of each stock culture. Gaseous VC (99.5%) was added with a gas tight syringe (200 μL). The cultures were then moved to a shaker (60-80 rpm) in an anaerobic chamber (20±2° C.). Immediately after 5 μmol of ethene was formed in a bottle, 200 μL of the culture was transferred to fresh media (60 mL), in triplicate, and VC was again added (200 μL). The inoculum for the growth study was that formed after exactly 4 μmol of ethene was produced following this second transfer. To compare growth rates on VC, a range in concentration of each inocula (0.1, 0.3, 1, 3, 9 mL) was transferred to fresh media (as above) to result in a liquid volume of 60 mL, and gaseous VC (200 μL) was added to each. […] Hydrogen served as the electron donor and was non-limiting (>3%) in all studies. Headspace samples were periodically removed by syringe (250 μL) for chlorinated ethene analyses.
(§4) The purpose of the second study was to compare dechlorination rates of PCE, TCE and DCE between the three different cultures that grew on VC (Victoria, KB-1/VC and Pinellas). The development of inocula here was performed with VC, just as in the first study. For the growth and substrate utilization experiments, triplicate bottles were set up for each culture containing 1 mL of inoculum and either neat PCE (0.4 μL), neat TCE (0.3 μL), saturated DCE solution (34 μL) or gaseous VC (200 μL). To further investigate TCE removal, bottles (120 mL) were filled with 20 mL of a highly enriched culture of strain VS made from the Victoria culture. Duplicate bottles were supplied with gaseous VC (50 μL on day 0, then 150 μL on day 3) or TCE (0.4 μL neat liquid). Dechlorination was followed until all VC or TCE was converted to ethene (day 12). The change in strain VS concentration during VC and TCE utilization was then determined both by competitive PCR and by an activity procedure evaluated previously for strain VS. In the activity procedure a non-growth limiting concentration of VC (150 μL) along with excess hydrogen is added to a culture and the initial dechlorination rate is measured (over <1 day). A good estimate of strain VS concentration can then be obtained using the previously determined strain VS maximum VC utilization rate (7.8×10^−10 μmol Cl^− (cell·d)^−1). The increase in strain VS concentration during TCE or VC utilization was determined with these two procedures on the culture before and after TCE and VC utilization.
(§5) Comparative dechlorination and growth kinetics. With mixed cultures, the concentration of organisms carrying out a particular reaction is generally unknown and difficult to determine. […]

Pinellas culture = assay: Batch dechlorination and growth kinetics, Pinellas culture; assay type: cell-based, Dehalococcoides-like microorganisms; conditions: for Maximum Growth Rate: 95% confidence interval
From the text: as §1, §2, §3, §4, §5

[2] = system: highly enriched culture of strain VS; assay: Batch dechlorination and growth, highly enriched culture of strain VS; assay type: cell-based, Dehalococcoides species strain VS; conditions: for Final VC rate / Final cells: after utilization of the substance; for Final VC rate / Mass dechlorinated: duplicate bottles; for Final cells: duplicates, computed from VC rate; for Initial VC rate: before utilization of the substance, average and range of replicates; for Growth yield by competitive PCR: strain VS grown on the substance
Experimental: as §4
Comparative dechlorination and growth kinetics. With mixed cultures, the concentration of organisms carrying out a particular reaction is generally unknown and difficult to determine. Thus, reaction rates with mixed cultures are generally reported in units that cannot be used for comparative purposes. For example, dechlorination rates have been reported in mass removal rate per microcosm or bottle, per unit liquid volume, per unit of total biomass or per unit of total protein. However, the approach described here allows us to make direct comparisons of basic dechlorination and growth kinetics between cultures. The main parameter used in this comparison is organism maximum growth rate, which is directly related to dechlorination kinetics. The maximum growth rate for each culture was determined from a least-squares model fit to experimental data. For this purpose, the dechlorination of TCE, DCE, and VC was modeled using Monod kinetics with competitive kinetics between the multiple electron acceptors involved in dechlorination (for the case when electron donor is non-rate-limiting):
Modeling approach. The above procedure was utilized to compare VC, DCE and TCE maximum growth rates between the Dehalococcoides like-microorganisms in the three cultures (strain VS, KB-1/VC and Pinellas). Previously determined VC and DCE half-velocity and competitive coefficients were included in this modeling approach (Table 2). Also, a previously determined decay coefficient (0.05 d^−1) for cells growing under optimal conditions (non-limiting electron acceptor and donor) was included. This leaves the maximum growth rates on individual chlorinated ethenes (μV, μD, or μT) as the only fitting parameters, which were determined, together with the 95% confidence interval) using non-linear least-squares fit to the experimental data.
DNA isolation and competitive PCR. For the Victoria, Pinellas, and KB-1/VC genomic DNA was extracted (1 mL) from the inoculum used in the VC growth comparison study and also from cultures in the comparative substrate utilization study following complete TCE dechlorination. DNA was extracted using a DNeasy® tissue system (Qiagen Inc, Valencia, Calif.), following the manufacture's instructions (final volume 200 μL). DNA was extracted from the D. ethenogenes strain 195 culture following dechlorination of DCE. […]

KB-1/VC culture = assay: Batch dechlorination and growth kinetics, KB-1/VC culture; assay type: cell-based, Dehalococcoides-like microorganisms; conditions: for Maximum Growth Rate: 95% confidence interval
From the text: as §1, §2, §3, §4, §5

ClC=C(Cl)Cl [TCE, trichloroethene]
Maximum Growth Rate [1]: 0.35 ± 0.07 day⁻¹ | Half velocity coefficient KT ([1]; VS Mixed culture): 9.0 ± 0.4 µM | Half velocity coefficient KT (Pinellas culture): 10.5 ± 0.7 µM | Maximum Growth Rate (Pinellas culture): 0.49 day⁻¹ and 0.49 ± 0.03 day⁻¹ | Half velocity coefficient KT ([2]; Highly enriched culture): 12.4 ± 0.6 µM | Maximum Growth Rate ([2]; Highly enriched strain VS culture, 95% confidence interval): 0.35 day⁻¹ and 0.35 ± 0.13 day⁻¹ | Final VC rate [2]: 312 µmol·days/L and 204 µmol·days/L | Final cells [2]: 4.0 × 10^11 cell L^−1 and 2.6 × 10^11 cell L^−1 | Initial VC rate [2]: 28 ± 2^a nmol (d · L)^−1 | Mass dechlorinated [2]: 10.94 µmol and 8.97 µmol | Growth yield by competitive PCR [2]: 4.7±0.3×10^8 cell/μmol Cl^− | Half velocity coefficient KT (KB-1/VC culture): 10.0 ± 2.0 µM | Maximum Growth Rate (KB-1/VC culture): 0.33 ± 0.06 day⁻¹

C=CCl [VC, vinyl chloride]
Maximum Growth Rate [1]: 0.49 day⁻¹ and 0.49 ± 0.02 day⁻¹ | time to form 5 μmol of ethene ([1]; Victoria culture, 200 μL VC): 18 days | Maximum Growth Rate (Pinellas culture): 0.28 day⁻¹ and 0.28 ± 0.01 day⁻¹ | time to form 5 μmol of ethene (Pinellas culture; 200 μL VC): 21 days | Final VC rate [2]: 228 µmol·days/L and 204 µmol·days/L | Final cells [2]: 2.9 × 10^11 cell L^−1 and 2.6 × 10^11 cell L^−1 | Initial VC rate [2]: 28 ± 2^a nmol (d · L)^−1 | Mass dechlorinated [2]: 10.39 µmol and 10.52 µmol | Growth yield by competitive PCR [2]: 5.2±0.4×10^8 cell/μmol Cl^− | Maximum Growth Rate (KB-1/VC culture): 0.42 day⁻¹ and 0.42 ± 0.03 day⁻¹ | time to form 5 μmol of ethene (KB-1/VC culture; 200 μL VC): 18 days
